Activation (light induction) and AC50 data for 20 compounds are collected here from PubChem BioAssay AID624270 (Broad Institute, 2012).

Active and inactive are the calls of the source. How the calls were made is not given here. Some results are limits rather than exact numbers.

A short description of assay [1]: V cholerae BH1578 lux luminescence, light production inducers, dose response, confirmatory, 6 h (AID 624270). The conditions noted are these: V. cholerae BH1578 lux luminescence, 6 h; at 35 µM (top of the series).
In assay [2] the test system is V. cholerae BH1578 lux luminescence, 6 h. The description is as above.

Turning to `CCn1c(CC(=O)Nc2cccc(Cl)c2Cl)nnc1SCCOc1ccc(OC)cc1`, the activation (light induction) in assay [1] was 1.79% (inactive).

As to `O=C(Cc1ccc(-c2ccccc2)cc1)NC1CCCC1`, the half-maximal activity concentration (AC50) (usually the concentration at which the activity in the assay is half-maximal) in assay [2] is 0.104 µM.

For `CCCn1nnnc1NCc1ccccc1Cl`, the activation (light induction) in assay [1] was 1.22% (inactive).

As for `COc1ccccc1NC(=O)COC(=O)c1oc2ccccc2c1C`, in assay [2], the concentration at half-maximal activity (AC50) is 1.57 µM.

For the compound `O=C(Nc1nnc(-c2ccc3c(c2)OCCO3)o1)C1CCCCC1`, the AC50 in assay [2] is 1.38 µM.

On to `COc1ccccc1NC(=O)COC(=O)c1cc2c(s1)CCC2`, for which the concentration at half-maximal activity (AC50) in assay [2] was 0.0662 µM.

As for `COc1ccccc1NC(=O)COC(=O)c1ccc(C)cc1`, in assay [2], the AC50 is 0.397 µM.

On to `CCn1nnc(NCc2ccc(C)cc2)n1`, for which the activation (light induction) in assay [1] was 0.27% (inactive).

With `CCCn1nnnc1NCc1ccc(C(C)C)cc1`, in assay [2], the AC50 is 0.0452 µM.

`COc1ccc(Cl)cc1NC(=O)COC(=O)c1ccc(C)o1`: the AC50 in assay [2] is 0.0638 µM.

As to `O=c1ncn(-c2cccc(Cl)c2)c2ccccc12`, in assay [2], the AC50 was 0.00129 µM.

As to `CCC(C)NC(=O)Cc1ccc(-c2ccccc2)cc1` (stereo not given), the half-maximal activity concentration (AC50) in assay [2] was 1.24 µM.

Turning to `CCOc1ccc(Nc2ccc3nonc3c2[N+](=O)[O-])cc1`, the AC50 in assay [2] was 0.183 µM.

Take `CCCn1nnnc1NCc1ccc(N(CC)CC)cc1`: the AC50 in assay [2] is 0.0548 µM.

For `CCn1nnnc1NCc1ccc(N2CCCC2)cc1`, the AC50 in assay [2] was 0.00414 µM.

`Cc1ccc(OCCNC(=O)c2cccc(C)c2)cc1`: the AC50 in assay [2] is 0.096 µM.

As to `Cc1c(Cl)cccc1-n1cnc(=O)c2ccccc21`, the AC50 in assay [2] was > 35 µM (inactive).

`Cc1ccc(CC(=O)NC2CCCC2)cc1`: in assay [1], the activation (light induction) was 15.8% (inactive).

On to `Cc1ccc2cc3c(NC(=O)c4ccco4)nn(C)c3nc2c1`, for which the AC50 in assay [2] is 2.87 µM.

With `CCCn1nnnc1NCc1ccc(N2CCCC2)cc1`, the AC50 in assay [2] is 0.0138 µM.
